# Columns and labels:
# [1] = target: T1, Avi-KRAS G12D (1-169) GppNHp/RAF1 RBD-3xFLAG (52-151) (Homo sapiens, UniProt P01116, G12D); experiment: Raf1-KRAS G12D-GppNHP disruption HTRF assay (Biological Example 1); format: binding
# T1 construct: Avi-KRAS G12D (1-169)
# In short: (§1)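 First, protein mix in Tris pH 7.5 buffer with NaCl, MgCl2, BSA, Tween and 10% DMSO is incubated 1 h at room temperature. Next, reagent mix is added and incubated a further 1 h at room temperature. Finally, HTRF is read and activity normalized to DMSO.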
# [2] = target: T2, Avi-KRAS G12R (1-169) GppNHp/RAF1 RBD-3xFLAG (52-151) (Homo sapiens, UniProt P01116, G12R); experiment: Raf1-KRAS G12R-GppNHP disruption HTRF assay (Biological Example 1); format: binding
# T2 construct: Avi-KRAS G12R (1-169)
# In short: as §1
# [3] = target: T3, Avi-KRAS G12V (1-169) GppNHp/RAF1 RBD-3xFLAG (52-151) (Homo sapiens, UniProt P01116, G12V); experiment: Raf1-KRAS G12V-GppNHP disruption HTRF assay (Biological Example 1); format: binding
# T3 construct: Avi-KRAS G12V (1-169)
# In short: as §1
# [4] = target: T4, Avi-KRAS WT (1-169) GppNHp/RAF1 RBD-3xFLAG (52-151) (Homo sapiens, UniProt P01116); experiment: Raf1-KRAS WT-GppNHP disruption HTRF assay (Biological Example 1); format: binding
# T4 construct: Avi-KRAS WT (1-169)
# In short: as §1
# GP2d cells (KRAS G12D) = experiment: Cell-based pERK HTRF assay in GP2d cell (Biological Example 2); settings: GP2d, GP2d (KRAS G12D) cells, pERK HTRF
# In short: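 60 min compound, 0.25% DMSO, 9-pt half-log curve from 1 μM or 100 nM; DMEM/10% FBS.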
# SW620 cells (KRAS G12V) = experiment: Cell-based pERK HTRF assay in SW620 cell (Biological Example 4); settings: Homo sapiens, SW-620, SW620 (KRAS G12V) cells, pERK HTRF
# In short: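 This assay measures inhibition of ERK phosphorylation downstream of KRAS G12V in intact SW620 cells. Compounds are applied for 4 h over nine half-log concentrations starting at 1 μM, and pERK is quantified by HTRF.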
# [5] = KRAS G12D, GppNHp-loaded, class symbols
# [6] = KRAS G12R, GppNHp-loaded, class symbols
# [7] = KRAS G12V, GppNHp-loaded, class symbols
# [8] = KRAS WT, GppNHp-loaded, class symbols
# [9] = KRAS G12D, GppNHp-loaded, Table 11
# [10] = KRAS G12R, GppNHp-loaded, Table 11
# [11] = KRAS G12V, GppNHp-loaded, Table 11
# [12] = KRAS WT, GppNHp-loaded, Table 11
# T4 sequence (P01116 1-169 isoform P01116-2): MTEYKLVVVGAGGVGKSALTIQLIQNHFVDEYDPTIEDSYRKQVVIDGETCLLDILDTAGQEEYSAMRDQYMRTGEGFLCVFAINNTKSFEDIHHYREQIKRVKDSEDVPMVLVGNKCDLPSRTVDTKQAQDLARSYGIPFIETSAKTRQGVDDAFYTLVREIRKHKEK
# T1 sequence (P01116 1-169 isoform P01116-2 G12D): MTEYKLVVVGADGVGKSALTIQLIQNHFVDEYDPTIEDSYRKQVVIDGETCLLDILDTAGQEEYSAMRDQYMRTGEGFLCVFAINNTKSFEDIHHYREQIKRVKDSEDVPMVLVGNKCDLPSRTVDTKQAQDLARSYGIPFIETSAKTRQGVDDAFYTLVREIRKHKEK
# T2 sequence (P01116 1-169 isoform P01116-2 G12R): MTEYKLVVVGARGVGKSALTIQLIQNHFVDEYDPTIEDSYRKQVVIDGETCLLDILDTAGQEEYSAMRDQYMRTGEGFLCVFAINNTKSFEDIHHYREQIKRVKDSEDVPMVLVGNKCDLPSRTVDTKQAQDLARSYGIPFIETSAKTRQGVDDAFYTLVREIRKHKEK
# T3 sequence (P01116 1-169 isoform P01116-2 G12V): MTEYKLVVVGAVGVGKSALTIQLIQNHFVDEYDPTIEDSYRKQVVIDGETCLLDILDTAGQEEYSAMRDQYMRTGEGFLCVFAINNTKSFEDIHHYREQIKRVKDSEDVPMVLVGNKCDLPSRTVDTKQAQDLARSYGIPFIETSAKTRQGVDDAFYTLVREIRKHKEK
Compound,"IC50 [1, 5] [nM]","IC50 [2, 6] [nM]","IC50 [3, 7] [nM]","IC50 [4, 8] [nM]",IC50 (GP2d cells (KRAS G12D); class symbols) [nM],IC50 (SW620 cells (KRAS G12V); class symbols) [nM],IC50 ([1]; KRAS G12D-GppNHp/RAF1 RBD HTRF) [nM],IC50 ([2]; KRAS G12R-GppNHp/RAF1 RBD HTRF) [nM],IC50 ([3]; KRAS G12V-GppNHp/RAF1 RBD HTRF) [nM],IC50 ([4]; KRAS WT-GppNHp/RAF1 RBD HTRF) [nM],IC50 (GP2d cells (KRAS G12D)) [nM],IC50 (SW620 cells (KRAS G12V)) [nM],"IC50 [1, 9] [nM]","IC50 [2, 10] [nM]","IC50 [3, 11] [nM]","IC50 [4, 12] [nM]"
CCN(c1nc(OCC23CCCN2CC(F)C3)nc2c(F)c(-c3ccc(F)c4sc(N)c(C#N)c34)c(C(F)(F)F)cc12)C1CCN(C(=O)c2ncccn2)C1 (stereo not drawn) [Compound 712],< 100,< 100,< 100,< 100,< 100,< 100,–,–,–,–,–,–,–,–,–,–
N#Cc1c(N)sc2c(F)ccc(-c3c(C(F)(F)F)cc4c(N5C[C@H]6C[C@H](O)[C@@H]5C6)nc(OC[C@@]56CCCN5C[C@H](F)C6)nc4c3F)c12 [Compound 361],–,–,–,–,–,–,100 to 1000,100 to 1000,1000 to 10000,100 to 1000,< 100,< 100,–,–,–,–
C[C@H]1CCN1c1nc(OC[C@@]23CCCN2C[C@H](F)C3)nc2c(F)c(-c3ccc(F)c4sc(N)c(C#N)c34)c(C(F)(F)F)cc12 [Compound 235],–,–,–,–,–,–,–,–,–,–,< 100,< 100,100 to 1000,100 to 1000,100 to 1000,100 to 1000
CCC(=O)N1CC[C@@H](N(C)c2nc(OC[C@@]34CCCN3C[C@H](F)C4)nc3c(F)c(-c4ccc(F)c5sc(N)c(C#N)c45)c(Cl)cc23)[C@H]1C [Compound 399],–,–,–,–,–,–,100 to 1000,100 to 1000,100 to 1000,100 to 1000,< 100,< 100,–,–,–,–
N#Cc1c(N)sc2c(F)ccc(-c3c(C(F)(F)F)cc4c(N5CCCC(O)CC5)nc(OC[C@@]56CCCN5C[C@H](F)C6)nc4c3F)c12 (stereo partly drawn) [Compound 267],–,–,–,–,–,–,–,–,–,–,< 100,< 100,< 100,< 100,100 to 1000,100 to 1000
CCN(c1nc(OC[C@@]23CCCN2C[C@H](F)C3)nc2c(F)c(-c3ccc(F)c4sc(N)c(C#N)c34)c(C(F)(F)F)cc12)[C@@H]1CCN(C(=O)OC)[C@@H]1C [Compound 489],–,–,–,–,–,–,100 to 1000,100 to 1000,100 to 1000,100 to 1000,< 100,< 100,–,–,–,–
CN(c1nc(OC[C@@]23CCCN2C[C@H](F)C3)nc2c(F)c(-c3ccc(F)c4sc(N)c(C#N)c34)c(C(F)(F)F)cc12)[C@@H]1CCCOC1 [Compound 274],–,–,–,–,–,–,–,–,–,–,< 100,< 100,100 to 1000,100 to 1000,100 to 1000,100 to 1000
C[C@@H]1[C@H](N(C)c2nc(OC[C@@]34CCCN3C[C@H](F)C4)nc3c(F)c(-c4ccc(F)c5sc(N)c(C#N)c45)c(Cl)cc23)CCN1C(=O)C(C)(F)F [Compound 420],–,–,–,–,–,–,1000 to 10000,1000 to 10000,1000 to 10000,1000 to 10000,100 to 1000,100 to 1000,–,–,–,–
"CCN(c1nc(OC[C@@]23CCCN2C[C@H](F)C3)nc2c(F)c(-c3ccc(F)c4sc(N)c(C#N)c34)c(C(F)(F)F)cc12)[C@H]1CCN(C(=O)OCC2CN(C(C)=O)C2)C1 (atropisomer, axis not shown) [Compound 640]",< 100,< 100,< 100,< 100,< 100,< 100,–,–,–,–,–,–,–,–,–,–
"CCN(c1nc(OC[C@@]23CCCN2C[C@H](F)C3)nc2c(F)c(-c3ccc(F)c4sc(N)c(C#N)c34)c(C(F)(F)F)cc12)[C@H]1CCN(C(=O)N(C)C2COC2)C1 (atropisomer, axis not shown) [Compound 598]",< 100,< 100,< 100,< 100,< 100,< 100,–,–,–,–,–,–,–,–,–,–
"CCN(c1nc(OC[C@@]23CCCN2C[C@H](F)C3)nc2c(F)c(-c3ccc(F)c4sc(N)c(C#N)c34)c(C(F)(F)F)cc12)[C@H]1CCN(C(=O)[C@H]2CCO2)[C@@H]1C (atropisomer, axis not shown) [Compound 805]",< 100,< 100,< 100,< 100,< 100,< 100,–,–,–,–,–,–,–,–,–,–
"CCOC(=O)N1CC[C@H](N(CC)c2nc(OC[C@@]34CCCN3C[C@H](F)C4)nc3c(F)c(-c4ccc(F)c5sc(N)c(C#N)c45)c(C(F)(F)F)cc23)C1 (atropisomer, axis not shown) [Compound 686]",< 100,< 100,< 100,100 to 1000,< 100,< 100,–,–,–,–,–,–,–,–,–,–
N#Cc1c(N)sc2c(F)ccc(-c3c(C(F)(F)F)cc4c(N5CC6C(=O)NC(=O)C6C5)nc(OC[C@@]56CCCN5C[C@H](F)C6)nc4c3F)c12 (stereo partly drawn) [Compound 308],–,–,–,–,–,–,100 to 1000,1000 to 10000,1000 to 10000,100 to 1000,100 to 1000,> 1000,–,–,–,–
CN(c1nc(OC[C@@]23CCCN2C[C@H](F)C3)nc2c(F)c(-c3ccc(F)c4sc(N)c(C#N)c34)c(C(F)(F)F)cc12)[C@H]1CCCOC1 [Compound 280],–,–,–,–,–,–,100 to 1000,100 to 1000,100 to 1000,100 to 1000,< 100,< 100,–,–,–,–
C=C(C)C(=O)N1CC[C@@H](N(C)c2nc(OC[C@@]34CCCN3C[C@H](F)C4)nc3c(F)c(-c4ccc(F)c5sc(N)c(C#N)c45)c(C(F)(F)F)cc23)[C@H]1C [Compound 671],100 to 1000,100 to 1000,100 to 1000,100 to 1000,< 100,100 to 1000,–,–,–,–,–,–,–,–,–,–
N#CCC[C@H]1CCN(c2nc(OC[C@@]34CCCN3C[C@H](F)C4)nc3c(F)c(-c4ccc(F)c5sc(N)c(C#N)c45)c(C(F)(F)F)cc23)C1 [Compound 214],–,–,–,–,–,–,–,–,–,–,100 to 1000,100 to 1000,1000 to 10000,1000 to 10000,1000 to 10000,1000 to 10000
CCN(c1nc(OC[C@@]23CCCN2C[C@H](F)C3)nc2c(F)c(-c3ccc(F)c4sc(N)c(C#N)c34)c(C(F)(F)F)cc12)[C@@H]1CCN(C(C)=O)[C@H]1C [Compound 414],–,–,–,–,–,–,100 to 1000,100 to 1000,100 to 1000,100 to 1000,< 100,100 to 1000,–,–,–,–
C[C@@H]1[C@H](N(C)c2nc(OC[C@@]34CCCN3C[C@H](F)C4)nc3c(F)c(-c4ccc(F)c5sc(N)c(C#N)c45)c(C(F)(F)F)cc23)CCN1C(=O)N(C)C [Compound 409],–,–,–,–,–,–,100 to 1000,100 to 1000,100 to 1000,100 to 1000,< 100,< 100,–,–,–,–
"CC[C@H](C)C(=O)N1CC[C@H](N(CC)c2nc(OC[C@@]34CCCN3C[C@H](F)C4)nc3c(F)c(-c4ccc(F)c5sc(N)c(C#N)c45)c(C(F)(F)F)cc23)C1 (atropisomer, axis not shown) [Compound 576]",< 100,< 100,100 to 1000,< 100,< 100,< 100,–,–,–,–,–,–,–,–,–,–
N#Cc1c(N)sc2c(F)ccc(-c3c(C(F)(F)F)cc4c(N5CCCCCC5)nc(OC[C@@]56CCCN5C[C@H](F)C6)nc4c3F)c12 [Compound 305],–,–,–,–,–,–,100 to 1000,100 to 1000,100 to 1000,100 to 1000,< 100,< 100,–,–,–,–
"CCN(c1nc(OC[C@@]23CCCN2C[C@H](F)C3)nc2c(F)c(-c3ccc(F)c4sc(N)c(C#N)c34)c(C(F)(F)F)cc12)[C@H]1CCN(C(=O)[C@@H]2C[C@@H]2F)C1 (atropisomer, axis not shown) [Compound 691]",< 100,< 100,< 100,< 100,< 100,< 100,–,–,–,–,–,–,–,–,–,–
CC(=O)N1CCC2[C@H]1CCN2c1nc(OC[C@@]23CCCN2C[C@H](F)C3)nc2c(F)c(-c3ccc(F)c4sc(N)c(C#N)c34)c(C(F)(F)F)cc12 (stereo partly drawn) [Compound 307],–,–,–,–,–,–,1000 to 10000,1000 to 10000,1000 to 10000,1000 to 10000,< 100,< 100,–,–,–,–
CCN(c1nc(OC[C@@]23CCCN2C[C@H](F)C3)nc2c(F)c(-c3ccc(F)c4sc(N)c(C#N)c34)c(C(F)(F)F)cc12)[C@H]1CCN(C(=O)OC2CC(OC)C2)C1 (stereo partly drawn) [Compound 791],< 100,< 100,< 100,< 100,< 100,< 100,–,–,–,–,–,–,–,–,–,–
